Data reported in patent US10942107B2, “Methods of screening for mild skin cleanser” (The Procter & Gamble Company, priority 2017, dated 2021).

Columns and labels:
[1] = known in the art; cited from earlier work
skin = assay: Surfactant skin penetration at 5 depths after forearm controlled application technique (FCAT), liquid chromatography and mass spectrometry; type: in vivo
Text: One way to test the potential mildness of a surfactant is by looking at how it interacts with the skin. One type of interaction with the skin is skin penetration. Skin penetration looks at how much of the surfactant will penetrate into the skin. It is believed that the more the surfactant penetrates into the skin, the less mild the composition. Originally, this was believed to be largely driven by the structure of the surfactant, itself. Now, it is believed that the phase behavior associated with the surfactant can also have an impact on the penetration of the surfactant, and thus, its mildness. One surfactant reviewed for mildness is sodium trideceth-2 sulfate. […] In FIG. 1, the lighter gray (left hand column) is sodium trideceth-2 sulfate deposited on skin in a vesicle form, specifically a lamellar form as part of Composition F (below), while the darker gray (right hand column) is sodium trideceth-2 sulfate deposited in a micellar form as part of Composition E (below). The compositions were applied in accordance with a forearm controlled application technique (FCAT), a description of which is found in Ertel et al., “A forearm controlled application technique for estimating the relative mildness of personal cleansing products,” J. Soc. Cosmet. […] The levels of the target materials on the skin are then measured with a combination of liquid chromatography and mass spectrometry.

cocamide monoethanolamine
HLB value [1]: 16.8

cocamidopropyl betaine
penetration of the surfactant into skin (concentration at depth 01 to depth 05) (skin; in vivo): A similar result was seen

sodium trideceth-2 sulfate
penetration of the surfactant into skin (concentration at depth 01 to depth 05) (skin; deposited from micellar composition (Composition E) versus lamellar composition (Composition F), FCAT, FIGS. 1-3): penetrates the skin at a greater concentration at all 5 depths measured
